Test results published in US20260248767A1, “METHODS FOR INDUCING FERROPTOSIS IN CANCER” (Board of Regents, The University of Texas System, priority 2023, published 2026).

Key:
HT-1080 cells [1] = experiment: Cell viability assay (CCK-8); format: cell-based, human
Description: Cell viability was measured using a Cell Counting Kit-8 (CCK-8, Dojindo) as previously described (Koppula, P., et al. J Biol Chem 292, 14240-14249, doi: 10.1074/jbc.M117.798405 (2017); Liu, X. et al. Nat Cell Biol 18, 431-442, doi: 10.1038/ncb3328 (2016)). In brief, cells were seeded onto 96-well plates at a density of 1×10^4 per well. The next day, cells were treated with indicated compound for 16-20 h. Subsequently, cells were changed to new 100 μl medium containing 10 μl CCK-8 reagent for 1 h at 37° C., 5% CO2 in incubator. The absorbance at 450 nm was determined using a FLUOstar Omega microplate reader (BMG Labtech).

HT-1080 cells [2] = experiment: Lipid peroxidation measurement (C11-BODIPY 581/591, flow cytometry); format: cell-based, human; details: combined with RSL3, compared to RSL3 alone
Description: Cells were seeded on 12-well plates and incubated overnight. After treating with compounds for indicated time, cells were incubated in media containing 5 μM C11-BODIPY 581/591 (Invitrogen) for 30 min at 37° C. Then cells were trypsinized and collected. […] All experiments were performed in triplicates.

oxidative PPP = experiment: Oxidative PPP flux calculation (1,2-[13C2] glucose); format: cell-based; details: sulfite vs vehicle treated cells
Description: Cells were seeded in six-well plates and incubated overnight, then given 2 ml of fresh medium containing 25 mM 1,2-[13C2] glucose. Aliquots of this medium were frozen and stored for analysis to determine the initial glucose concentration, and cells in replicate plates were trypsinized and counted to determine initial cell numbers. After 24 h, the spent medium was extracted as above and frozen until analysis, and the cells were trypsinized and counted to determine the final cell numbers.
For lactate isotopomer analysis the samples were analyzed directly. The relative quantities of M0, M1, M2 and M3 lactate were corrected for natural carbon-13 abundance using the IsoCorrectoR software package (Heinrich, P. et al. Sci Rep 8, 17910, doi: 10.1038/s41598-018-36293-4 (2018)). and the oxidative PPP-shunting ratio was calculated by taking the ratio M1/(M1+M2) (Badur, M. G. et al. Cell Rep 25, 1680, doi: 10.1016/j.celrep.2018.10.099 (2018)); since there is no difference in growth rates between the vehicle and sulfite treated cell lines, it is assumed that the biosynthetic demand for ribose-5-phosphate or any other PPP intermediate is the same in each case, so any increase in this ratio reflects an increase in NADPH production by the oxidative PPP.

one-carbon metabolism = experiment: dTTP levels and labelling (serine through one-carbon metabolism); format: cell-based; details: sulfite vs vehicle treated samples, over time
Description: The total dTTP, M+1dTTP and M+2 dTT were measured in the presence or absence of sulfite.
The complete platform consists of an Accela 1250 HPLC system, Accela Open Autosampler, MayLab Mistraswitch column oven and Exactive orbitrap mass spectrometer, controlled by the Xcalibur 3.0.63 software package. Chromatography was performed with a Phenomenex Synergi Hydro-RP column (100×2 mm, 2.5 μm particle size). Solvent A is 10 mM tributylamine and 15 mm acetic acid in water; Solvent B is methanol. The gradient is: 0 min, 0% B; 2.5 min, 0% B; 5 min, 20% B; 7.5 min, 20% B; 13 min, 55% B; 15.5 min, 95% B; 18.5 min, 95% B; 19 min, 0% B; 25 min, 0% B. The injection volume was 10 μl. The column temperature was set to 40° C., and the flow rate was 200 μl/min. The Exactive was operated in negative ionization mode with an electrospray ionization interface. The instrument parameters are as follows: sheath gas flow rate 30 (arbitrary units), aux gas flow rate 10 (arbitrary units), sweep gas flow rate 3 (arbitrary units), spray voltage 3 kV, capillary temperature 325° C., capillary voltage −25 V, tube lens voltage −50 V. The scan range was set to 80-1,000 m/z, with a maximum inject time of 250 ms, resolution of 100,000 at 1 Hz, and AGC (automatic gain control) target 1×10^6. The data were analyzed using the MAVEN software suite with signal intensity determined as the Peak Area (Top). For metabolic labelling experiments, the data were corrected to account for the natural abundance of nitrogen-15 using IsoCorrectoR (Heinrich, P. et al. Sci Rep 8, 17910, doi: 10.1038/s41598-018-36293-4 (2018)).

MTHFD2 = experiment: Protein level after sulfite treatment (Western blotting), MTHFD2; format: cell-based; details: following treatment with sulfite
Description: To test if sulfite changed mitochondrial protein levels, SHMT2 and MTHFD2 protein levels were measured following treatment with sulfite. No changes in protein levels were observed (FIG. 9).
Briefly, cells were lysed in NP-40 lysis buffer (50 mM Tris [pH 7.4], 250 mM NaCl, 5 mM EDTA, 50 mM NaF, 1 mM Na3VO4, 1% Nonidet P40) containing complete mini protease inhibitors (Roche). The protein concentration of lysates was quantified using BCA Protein Assay Kit from Life Technologies (#23227). 20 μg of total protein was loaded into SDS-PAGE gel and transferred to a PVDF membrane (Bio-Rad) using standard techniques. The primary antibodies and concentrations used for Western blotting were Vinculin (1:1000, Sigma-Aldrich, #V4505), SUOX (1:1000, Abcam, #ab129094), SHMT2 (1:1000, Sigma-Aldrich, #HPA-020549), IDH1 (1:1000, Proteintech, #12332-1-AP), ME1 (1:1000,), MTHFD2 (1:1000, Abcam, #ab56772), Flag (1:1000, Sigma, #F1804), GPX4 (1:1,000, R&D, #MAB5457), COQ2 (1:1,000, Santa Cruz, sc-517107) and FSP1 (1:1000, Proteintech, #20886-1-AP).

HT-1080 cells [3] = experiment: Cell death assay (PI flow cytometry), HT-1080 cells incl. knockout lines
Description: Initially, the effect of sulfite on ferroptosis was studied. […] Each group was treated with vehicle alone or with sulfite.
The knockout cells were identified by immunoblotting.
Briefly, cells were seeded in 12-well plates and incubated overnight. After treatment, cells were trypsinized and collected. After washing with cold phosphate-buffered saline (PBS), the cells were stained with 2 μg/mL propidium iodide (PI) in cold PBS. […] All experiments were performed in triplicates.

With O=S([O-])[O-].[Na+].[Na+] [sulfite, sodium sulfite] the “cell viability when combined with different concentrations of RSL3” value (HT-1080 cells [1]; combined with RSL3, range of concentrations) was “reduces cell viability”, the “sensitization effect on cell viability in SHMT2 knock out cells” value (HT-1080 cells [1]; sulfite plus multiple concentrations of RSL3, SHMT2 knock out vs wild type) was “much weaker than in wild type cells” and the “relative lipid peroxidation level in combination with RSL3” value (HT-1080 cells [2]) was “significantly increased”. The oxPPP shunting (oxidative PPP) was “increase”, the “M+1dTTP” value (one-carbon metabolism) was “decreased over time” and the “M+2 dTT” value (one-carbon metabolism) was “decreased over time”. For the same compound, the “total dTTP” value (one-carbon metabolism) was “decreased over time”, the MTHFD2 protein level (MTHFD2) was “No changes” and the “cell death as observed visually” value (HT-1080 cells [3]; 0.5 mM, cancer cells, presence or absence of RSL3) was “resulted in cell death”. The “sensitization of knock out cells to ferroptosis” value (HT-1080 cells [3]; GPX4, FSP1, COQ2 and DHODH knock out cell lines) was “can still sensitize”, the “cell death in combination with RSL3 in SHMT2 knock out cells” value (HT-1080 cells [3]; RSL3+Sulfite vs RSL3 alone, SHMT2 knock out cells (FIG. 5J)) was “slight increase in cell death” and the “cell death in combination with RSL3 in SUOX knockout cells” value (HT-1080 cells [3]; SUOX knockout HT-1080 cells, vs RSL3 alone) was “significantly more cell death”. For the same compound, the “sensitization to RSL3 induced ferroptosis under co-treatment with ferroptosis regulator inhibitors” value (HT-1080 cells [3]; co-treatment with 4CBA, iFSP1 or brequinar (BQR)) was “can still sensitize”, the “cell death in combination with RSL3” value (HT-1080 cells [3]; combined with RSL3, compared to RSL3 alone) was “significant increased cell death” and the “cell death in combination with FIN56” value (HT-1080 cells [3]; combined with ferroptosis inducer FIN56) was “similarly enhanced”. For the same compound, the “cell death in combination with JKE-1674” value (HT-1080 cells [3]; combined with ferroptosis inducer JKE-1674 (JKE)) was “similarly enhanced”, the “cell death in combination with ML-162” value (HT-1080 cells [3]; combined with ferroptosis inducer ML-162) was “similarly enhanced” and the “cell death in combination with ML-210” value (HT-1080 cells [3]; combined with ferroptosis inducer ML-210) was “similarly enhanced”.
